Experimental data reported in ChEMBL document CHEMBL3612011, “Synthesis of new opioid derivatives with a propellane skeleton and their pharmacologies: Part 5, novel pentacyclic propellane derivatives with a 6-amide side chain” (Bioorg Med Chem, 2015).
Active and inactive are the calls of the source. No cut-off for these calls is given here.

Legend:
[1] = molecular target: Delta-type opioid receptor (Mus musculus, UniProt P32300); assay: Displacement of [3H]DPDPE from DOR in mouse whole brain membranes without cerebellum; assay type: cell membranes, Membrane
[2] = molecular target: Kappa-type opioid receptor (Mus musculus, UniProt P33534); assay: Displacement of [3H]U69,593 from KOR in mouse whole brain membranes without cerebellum; assay type: cell membranes, Membrane
[3] = Selectivity index, ratio of Ki for MOR in guinea pig cerebellum membranes to Ki for KOR in mouse whole brain membranes without cerebellum; assay type: cell membranes
[4] = molecular target: Mu-type opioid receptor (Cavia porcellus, UniProt P97266); assay: Displacement of [3H]DAMGO from MOR in guinea pig cerebellum membranes; assay type: cell membranes, Membrane
[5] = species: Mus musculus; assay: Selectivity index, ratio of Ki for DOR in mouse whole brain membranes without cerebellum to Ki for KOR in mouse whole brain membranes without cerebellum; assay type: cell membranes
[6] = system: Mus musculus; assay: Antinociceptive activity in ICR mouse assessed as reduction in acetic acid-induced abdominal writhing dosed subcutaneously 15 mins before acetic acid challenge and treated 24 hrs after 10 mg/kg, sc KOR antagonist nor-Binaltorphimin dosing; assay type: functional, organism-based; conditions: Abdomen
[7] = species: Mus musculus; assay: Induction of sedation in ICR mouse by spontaneous locomotor activity test; assay type: organism-based; conditions: in vivo
[8] = molecular target: T1, Kappa-type opioid receptor (Homo sapiens, UniProt P41145); assay: Agonist activity at human KOR expressed in CHO cell membranes by [35S]GTPgammaS binding assay relative to U69,593; assay type: functional
[9] = Therapeutic index, ratio of ED50 for induction of sedation in ICR mouse by spontaneous locomotor activity test to ED50 for antinociceptive activity in ICR mouse by acetic acid abdominal constriction test; assay type: organism-based, Abdomen; conditions: in vivo, read-out: Ratio ED50
[10] = system: Mus musculus; assay: Antinociceptive activity in ICR mouse assessed as reduction in acetic acid-induced abdominal writhing dosed subcutaneously 15 mins before acetic acid challenge; assay type: functional; conditions: Abdomen; for ED50: sc
[11] = molecular target: T1, Kappa-type opioid receptor; assay: Agonist activity at human KOR expressed in CHO cell membranes by [35S]GTPgammaS binding assay; assay type: functional

Chain of Delta-type opioid receptor (P32300 whole entry): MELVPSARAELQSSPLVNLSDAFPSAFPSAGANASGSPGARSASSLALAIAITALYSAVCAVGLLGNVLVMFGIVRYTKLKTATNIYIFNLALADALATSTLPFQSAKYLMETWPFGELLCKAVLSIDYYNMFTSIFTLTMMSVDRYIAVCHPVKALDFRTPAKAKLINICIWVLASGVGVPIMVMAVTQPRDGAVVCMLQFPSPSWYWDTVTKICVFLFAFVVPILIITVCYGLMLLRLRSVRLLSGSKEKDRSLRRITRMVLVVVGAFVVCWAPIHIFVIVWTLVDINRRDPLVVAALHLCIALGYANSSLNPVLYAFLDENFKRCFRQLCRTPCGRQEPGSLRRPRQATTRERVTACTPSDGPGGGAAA
Chain of Mu-type opioid receptor (P97266 whole entry): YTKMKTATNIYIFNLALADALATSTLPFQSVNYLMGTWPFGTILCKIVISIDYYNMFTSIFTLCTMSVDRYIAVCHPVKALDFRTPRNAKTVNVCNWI
Chain of Kappa-type opioid receptor (Mus musculus, UniProt P33534) (P33534 whole entry): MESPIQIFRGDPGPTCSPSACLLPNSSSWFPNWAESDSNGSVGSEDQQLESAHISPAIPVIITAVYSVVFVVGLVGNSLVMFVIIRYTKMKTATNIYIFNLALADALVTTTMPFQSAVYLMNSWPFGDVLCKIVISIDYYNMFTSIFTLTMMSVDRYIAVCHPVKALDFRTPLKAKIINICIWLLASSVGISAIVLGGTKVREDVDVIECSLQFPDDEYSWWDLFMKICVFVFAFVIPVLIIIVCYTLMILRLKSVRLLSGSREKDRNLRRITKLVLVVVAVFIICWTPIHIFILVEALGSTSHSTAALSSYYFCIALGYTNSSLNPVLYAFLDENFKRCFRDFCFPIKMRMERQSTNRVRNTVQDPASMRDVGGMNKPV
T1 sequence (P41145 whole entry): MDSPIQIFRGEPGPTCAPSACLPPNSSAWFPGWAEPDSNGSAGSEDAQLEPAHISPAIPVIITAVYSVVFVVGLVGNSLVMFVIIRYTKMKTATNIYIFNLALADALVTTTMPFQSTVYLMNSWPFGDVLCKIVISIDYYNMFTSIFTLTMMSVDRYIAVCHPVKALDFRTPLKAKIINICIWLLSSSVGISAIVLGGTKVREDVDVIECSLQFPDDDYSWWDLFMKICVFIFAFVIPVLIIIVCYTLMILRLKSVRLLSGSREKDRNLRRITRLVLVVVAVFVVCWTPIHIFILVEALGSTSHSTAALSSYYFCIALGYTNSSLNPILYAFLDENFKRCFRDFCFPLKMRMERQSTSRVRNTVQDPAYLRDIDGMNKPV

| Compound | Ki [1] [nM] | Ki [2] [nM] | Ratio Ki [3] | Ki [4] [nM] | Ratio Ki [5] | inhibition [6] | ED50 [7] [mg/kg] | Emax [8] [%] | selectivity ratio [9] | inhibition [10] | ED50 [10] [mg/kg] | EC50 [11] [nM] |
| --- | --- | --- | --- | --- | --- | --- | --- | --- | --- | --- | --- | --- |
| CN(C(=O)c1ccccc1)[C@@H]1C[C@@]23CCN(CC4CC4)[C@H]4CCC1C[C@]42Cc1ccc(O)cc13 (single isomer, unassigned) | 3.65 | 0.543 | 0.516 | 0.28 | 6.72 |  |  |  |  |  |  |  |
| CN(C(=O)c1ccccc1)[C@H]1C[C@@]23CCN(CC4CC4)[C@H]4C=C[C@@H]1C[C@]42Cc1ccc(O)cc13 | 6.46 | 13.1 | 3.63 | 47.6 | 0.493 |  |  |  |  |  |  |  |
| CN(C(=O)Cc1ccccc1)[C@@H]1C[C@@]23CCN(CC4CC4)[C@H]4C=C[C@@H]1C[C@]42Cc1ccc(O)cc13 | 1.66 | 0.24 | 1.75 | 0.42 | 6.92 |  |  |  |  |  |  |  |
| CN(C(=O)CCc1ccccc1)[C@@H]1C[C@@]23CCN(CC4CC4)[C@H]4CCC1C[C@]42Cc1ccc(O)cc13 (single isomer, unassigned) | 1.15 | 0.113 | 2.03 | 0.229 | 10.2 |  |  |  |  |  |  |  |
| CN(C(=O)/C=C/c1ccoc1)[C@H]1C[C@@]23CCN(CC4CC4)[C@H]4CC[C@@H]1C[C@]42Cc1ccc(O)cc13 | 19.1 | 8.36 | 5.73 | 47.9 | 2.28 |  |  |  |  |  |  |  |
| CN(C(=O)/C=C/c1ccoc1)[C@@H]1C[C@@]23CCN(CC4CC4)[C@H]4CC[C@@H]1C[C@]42Cc1ccc(O)cc13 | 0.182 | 0.204 | 1.14 | 0.232 | 0.89 |  |  |  |  |  |  |  |
| CN(C(=O)CCc1ccccc1)[C@H]1C[C@@]23CCN(CC4CC4)[C@H]4CCC1C[C@]42Cc1ccc(O)cc13 (single isomer, unassigned) | 32.4 | 11.9 | 0.966 | 11.5 | 2.72 |  |  |  |  |  |  |  |
| CN(C(=O)Cc1ccccc1)[C@@H]1C[C@@]23CCN(CC4CC4)[C@H]4CCC1C[C@]42Cc1ccc(O)cc13 (single isomer, unassigned) | 1.19 | 0.136 | 1.45 | 0.197 | 8.75 |  |  |  |  |  |  |  |
| CN(C(=O)/C=C/c1ccoc1)[C@H]1C[C@@]23CCN(CC4CC4)[C@H]4C=C[C@@H]1C[C@]42Cc1ccc(O)cc13.Cl | 14.2 | 0.82 | 17 | 13.9 | 17.3 | inactive | 7.74 | 108 | 13.1 | Dose-dependent effect | 0.589 | 11.8 |
| CN(C(=O)Cc1ccccc1)[C@H]1C[C@@]23CCN(CC4CC4)[C@H]4C=C[C@@H]1C[C@]42Cc1ccc(O)cc13 | 4.5 | 1.73 | 7.05 | 12.2 | 2.6 |  |  |  |  |  |  |  |
| CN(C(=O)/C=C/c1ccoc1)[C@@H]1C[C@@]23CCN(CC4CC4)[C@H]4C=C[C@@H]1C[C@]42Cc1ccc(O)cc13 | 3.98 | 0.23 | 2.48 | 0.57 | 17.3 |  |  |  |  |  |  |  |
| CN(C(=O)Cc1ccccc1)[C@H]1C[C@@]23CCN(CC4CC4)[C@H]4CCC1C[C@]42Cc1ccc(O)cc13 (single isomer, unassigned) | 15 | 11 | 5.42 | 59.6 | 1.36 |  |  |  |  |  |  |  |
| CN(C(=O)CCc1ccccc1)[C@H]1C[C@@]23CCN(CC4CC4)[C@H]4C=C[C@@H]1C[C@]42Cc1ccc(O)cc13 | 10.7 | 1.86 | 2.34 | 4.36 | 5.75 |  |  |  |  |  |  |  |
| CN(C(=O)/C=C/c1ccoc1)[C@@H]1CC[C@@]2(O)[C@H]3Cc4ccc(O)c5c4[C@@]2(CCN3CC2CC2)[C@H]1O5.Cl [NALFURAFINE HYDROCHLORIDE] |  |  |  |  |  |  | 0.0344 |  |  |  | 0.00622 |  |
| CN(C(=O)CCc1ccccc1)[C@@H]1C[C@@]23CCN(CC4CC4)[C@H]4C=C[C@@H]1C[C@]42Cc1ccc(O)cc13 | 3.52 | 0.47 | 1.09 | 0.51 | 7.49 |  |  |  |  |  |  |  |
| CN(C(=O)c1ccccc1)[C@H]1C[C@@]23CCN(CC4CC4)[C@H]4CCC1C[C@]42Cc1ccc(O)cc13 (single isomer, unassigned) | 1.27 | 13.8 | 4.06 | 56 | 0.092 |  |  |  |  |  |  |  |
| CN(C(=O)c1ccccc1)[C@@H]1C[C@@]23CCN(CC4CC4)[C@H]4C=C[C@@H]1C[C@]42Cc1ccc(O)cc13 | 2.23 | 4.46 | 0.61 | 2.7 | 0.5 |  |  |  |  |  |  |  |
